Experimental data published in patent publication US9682928B2 (NeuroPro Therapeutics, Inc., priority 2009, dated 2017).
Entries after “also recorded” stand apart in the source; their conditions may differ.

Columns and labels:
Male Rj: NMRI mice = assay: Formalin paw test (late phase) in the mouse; assay type: in vivo
Method: The method described herein detects analgesic/anti-inflammatory activity, generally used to test compounds for pain relief, in particular diabetic neuropathy or nociceptive neuropathy. See Wheeler-Aceto, et al. (1991) Psychopharmacology 104: 35-44.
Mice were given an intraplantar injection of 5% formalin (25 μl) into the posterior left paw. This treatment induces paw licking in control animals. Mice were briefly observed at 1 minute intervals between 15 and 50 minutes after the injection of formalin and the number of occasions that the mice were observed licking the injected paw was recorded. There were 10 mice per group and the test was performed “blind.”
The experiment included 11 groups. Data was analyzed by comparing treated groups with vehicle control using unpaired Mann-Whitney U tests.
Gabapentin (100 mg/kg i.p.) administered under the same experimental conditions, was used as reference substance. The experiment included several groups. Data was analyzed by comparing treated groups with vehicle control using unpaired Mann-Whitney U tests.

Male CD-1 mice [1] = assay: Chung (SNL) neuropathic pain study in mice; assay type: in vivo, mouse; conditions: mice, i.p., SNL
From the text: Male CD-1 mice (25-35 g, Charles River) were used for all studies. Mice were housed in groups of five in Plexiglas chambers with food and water available ad libitum. All animals were maintained on a 12 hr light/dark cycle (lights on at 7:00 AM) in a temperature- and humidity-controlled animal colony. The health status of the animals used in this study was examined on arrival. Only animals in good health were acclimatized to laboratory conditions and used in the study. The acclimation period to the vivarium was a minimum of 7 days. All animal experiments were performed under an approved protocol in accordance with institutional guidelines and in accordance with the Guide for the Care and Use of Laboratory Animals as adopted and promulgated by the National Institutes of Health.
NTP has provided adequate amounts of NTP-2014 and NTP-2026 along with detailed instructions for preparing injection solutions. Gabapentin (Gallipot, St. Paul, Minn.) was dissolved in physiological saline. Injections were made using a 1-mL syringe with a 30-gauge needle at a volume of 10 ml/kg body weight. Animal body weights were measured prior to surgery and then on the morning of Day 7 (post-SNL testing). For i.p. drug administration, each mouse was firmly grasped by the nape of the neck and the tail was tucked between the last two fingers and palm of the technician's hand. The back of the mouse iwasarched slightly backwards exposing the abdominal region. The needle was inserted through the skin and abdominal musculature into the peritoneal cavity just off of the midline. Mice are immediately returned to the testing cage until behavioral testing.
NTP2026 (56, 100 and 180 mg/kg, i.p.); NTP 2014 (32, 56 and 100 mg/kg, i.p.); Gabapentin (100 mg/kg, i.p.); Vehicle Control (10% TPGS in benzoate buffer, i.p.).
SNL surgeries were performed based on the procedures described for rats (Kim and Chung, 1992) and modified for mice (Wang et al., 2001). Anesthesia was maintained with 0.5% halothane in O2 and body temperature was maintained using a heated water blanket. After surgical preparation of the mice, a 1-cm paraspinal incision was made at the level L4-S2. The L5 and L6 spinal nerves were exposed and tightly ligated using a 4-0 silk suture. The ligation was made distal to the dorsal root ganglion but before the fibers joined the sciatic nerve. The incisions were then closed, and animals are allowed to recover. […] Mechanical thresholds were determined by measuring the paw withdrawal threshold to probing with a series of calibrated von Frey filaments as described below.
Non-noxious sensory thresholds of the mice were determined by paw withdrawal […] to probing with a series of calibrated (0.02-2.34 gm on a logarithmic scale) von Frey filaments (“up and down” method) according to Chaplan et al. (1994) and analyzed using a Dixon (1980) nonparametric test. Results are expressed as the mean withdrawal thresholds. Baseline latencies/thresholds were determined prior to surgery, on the morning of Day 7, and then between 20-60 minutes post dosing with the test drugs. The post-drug time corresponds to the time of maximal activity for these compounds in the tail-flick assay.

male Sprague Dawley rats = assay: Taxol-induced peripheral neuropathy (rat), mechanical allodynia (von Frey); assay type: in vivo; conditions: gabapentin 100 mg/kg
From the text: In this study, an animal model of Taxol-induced sensory neuropathy was employed to evaluate the effects of the sponsor's test compounds, for response to tactile sensitivity using von Frey test of mechanical allodynia. […] Therefore, Taxol-induced mechanical allodynia was employed as the measured behavioral endpoint.
The test substance was homogenized and dispersed using a mortar and a pestle in 0.2% hydroxypropylmethylcellulose (HPMC) in physiological saline, which served as the vehicle. Test articles were administered intraperitoneally in dose volumes of 10 mL/kg body weight. Preparations were made freshly for each day of administration.
Prior to test article NTP-2024 and vehicle control group administration, rats were pretreated at 30 minutes and again at 10 minutes prior to test article administration with a general metabolic inhibitor, piperonyl butoxide (150 mg/kg i.p.) in DMSO, at a volume of 1 mL/kg.
The reference article, Gabapentin, was formulated in saline to a concentration of 100 mg/mL and delivered […] at a dose volume of 1 mL/kg body weight (for a dosing concentration of 100 mg/kg).
All animals were administered Taxol, 2 mg/kg, IP at a dose volume of 1 mL/kg, on Days 1, 3, 5 and 7.
On Day 32, all animals received a single intraperitoneal injection of test article or vehicle according to Tables 1 and 2. For group 1 (vehicle), rats were pre-treated with Piperonyl butoxide (150 mg/kg IP, dose volume of 1 mL/kg) at 30 minutes and again at 10 minutes prior to vehicle administration. Four animals in group 3 (NTP-2024) were also pre-treated with Piperonyl butoxide (150 mg/kg IP, dose volume of 1 mL/kg) at 30 minutes and again at 10 minutes prior to vehicle administration. Animals in Groups 2, 3, 4, & 5 were pre-treated with Saline (dose volume of 1 mL/kg, IP) at 30 minutes and again at 10 minutes prior to test article administration. With the exception of animals in group 2, the animals received an IP injection of vehicle or test article 30 min prior to mechanical allodynia testing. Animals were dosed at a volume of 10 mL/kg.
Animals in group 2, received an IP injection of Gabapentin 90 minutes prior to mechanical allodynia testing. Animals were dosed at a volume of 1 mL/kg.
All animals underwent von Frey testing for mechanical allodynia. On testing days, the animals were returned to the chambers and allowed approximately 15 minutes to explore their surroundings prior to testing. A series of filaments were applied to the left hind paw. A 2.0 g filament was first applied to the plantar surface, if the animal responded to the filament (by lifting its paw) then the next smaller filament was applied. […] This is repeated in an “Up down” method for four responses after the first initial change in response.
The original study design used thermal hyperalgesia as the main parameter for testing the ability of the test compounds to ameliorate the pain associated with the Taxol injection. The treatment inclusion was set at a 20% drop from baseline values as determined on Day 28. […] The study design was amended to use mechanical allodynia as the testing parameter. […] This changed the testing days from Day 28 to Day 31 for allodynia confirmation and Day 29 to Day 32 for testing the article efficacy. Additional animals were received to complete the group size designation. These animals were tested for mechanical allodynia only. The study was then further amended to remove the piperonyl butoxide as a pre-treatment for Group 3 (NTP-2024). […] Because this study was conducted in two portions, four (4) animals from Group 3 received the metabolic inhibitor and five (5) received Saline as a pre-treatment.
The group mean results were analyzed versus the vehicle control group using a two way ANOVA, followed by a Bonferroni post-hoc test. Individual groups were tested pre and post dose using a paired t-test.

Male CD-1 mice [2] = assay: Chung (SNL) neuropathic pain study in mice; assay type: in vivo, mouse; conditions: high dose group (180 mg/kg NTP-2014; 100 mg/kg NTP-2026; gabapentin 100 mg/kg, i.p.)

SMILES: NCC1(CC(=O)O)CCCCC1 [Gabapentin, reference compound]
- Licking Score % Pain Decrease (Male Rj: NMRI mice; gabapentin 100 mg/kg (584 μmol/kg)): 63%
- Licking Score (15 to 50 minutes post-formalin injection) % Change from Control (Male Rj: NMRI mice; gabapentin 100 mg/kg i.p. (584 μmol/kg)): −63%
- Reversal of tactile hypersensitivity (Male CD-1 mice [1]): dose-dependent activity
- Reversal of mechanical allodynia (male Sprague Dawley rats): able to mitigate the mechanical allodynia; also recorded: significantly reverse
- Sedation (Male CD-1 mice [2]): minor sedation and incoordination
